Experimental data from patent US20240408116A1, “COMPOSITIONS FOR ENHANCING SEXUAL PLEASURE WITH REDUCED PHAR[…] OF PDE5 INHIBITOR” (priority 2023, published 2024).

System: male participants
Experiment: Male participants rated strength of erections and orgasms on a scale of 1 to 10 after ingesting PDE5 inhibitor and cannabis/THC
Assay type: in vivo, human

Measured: PDE5 inhibiting effect of THC taken alone

Experimental: Male participants rated the strength of their erections and orgasms, and female participants rated the strength of their threshold desire, arousal and orgasms, on a scale of 1 to 10.
This first time, the subject took the full prescription dose of sildenafil (100 mg) in pill form together with an infused cannabis edible containing 20 mg of THC.
The subject in Examples 1 and 2 further reduced the dosage of sildenafil to 40 mg, 30 mg, and 20 mg in stages, together with cannabis dosages that delivered 20 mg, 15 mg, or 10 mg of THC.
A test subject consumed ingestible dosage forms of cannabis and sildenafil. This first time, the subject took 50% of the full prescription dose of sildenafil (50 mg) in pill form together with an infused cannabis edible containing 20 mg of THC.
The subject in Example 4 further reduced the dosage of sildenafil to 40 mg and used the same cannabis dosage that delivered 20 mg of THC.
The subject in Examples 4 and 5 further reduced the dosage of sildenafil to 30 mg, 20 mg, and 10 mg in stages, together with cannabis dosages that delivered 20 mg, 15 mg, or 10 mg of THC.
A test subject consumed ingestible dosage forms of cannabis and sildenafil. This first time, the subject took 60% of the full prescription dose of sildenafil (60 mg) in pill form together with an infused cannabis edible containing 25 mg of THC.
The test subject in Example 7 further reduced the dosage of sildenafil to 40 mg and used a cannabis dosage that delivered 20 mg of THC.
The subject in Examples 7 and 8 further reduced the dosage of sildenafil to 30 mg, 20 mg, and 10 mg in stages, together with cannabis dosages that delivered 20 mg, 15 mg, or 10 mg of THC.

CCCCCc1cc(O)c2c(c1)OC(C)(C)[C@@H]1CCC(C)=C[C@@H]21 [THC, tetrahydrocannabinol]
no noticeable PDE5 inhibiting effect: Example 1: person | Example 4: person | Example 7: person | Example 10: person
